Drawing on PMC11796242, “Nitidine chloride inhibits the progression of hepatocellular carcinoma by suppressing IGF2BP3 and modulates metabolic pathways in an m^6A-dependent manner” (Molecular Medicine, 2025), this text covers Kd for one molecule.

For this test, the target named is T1, IGF2BP3 (Homo sapiens, UniProt O00425).
T1 construct: immobilised by amine coupling on CM5 chip (PDB 6GQE used only for docking)
In words: SPR (BIAcore T200, CM5 chip, immobilised IGF2BP3, […] Langmuir global fit). Type of test: binding. For orientation: SPR reads the build-up and loss of mass on a sensor chip optically.

SMILES strings stand for the structures.

T1 sequence (O00425 whole entry): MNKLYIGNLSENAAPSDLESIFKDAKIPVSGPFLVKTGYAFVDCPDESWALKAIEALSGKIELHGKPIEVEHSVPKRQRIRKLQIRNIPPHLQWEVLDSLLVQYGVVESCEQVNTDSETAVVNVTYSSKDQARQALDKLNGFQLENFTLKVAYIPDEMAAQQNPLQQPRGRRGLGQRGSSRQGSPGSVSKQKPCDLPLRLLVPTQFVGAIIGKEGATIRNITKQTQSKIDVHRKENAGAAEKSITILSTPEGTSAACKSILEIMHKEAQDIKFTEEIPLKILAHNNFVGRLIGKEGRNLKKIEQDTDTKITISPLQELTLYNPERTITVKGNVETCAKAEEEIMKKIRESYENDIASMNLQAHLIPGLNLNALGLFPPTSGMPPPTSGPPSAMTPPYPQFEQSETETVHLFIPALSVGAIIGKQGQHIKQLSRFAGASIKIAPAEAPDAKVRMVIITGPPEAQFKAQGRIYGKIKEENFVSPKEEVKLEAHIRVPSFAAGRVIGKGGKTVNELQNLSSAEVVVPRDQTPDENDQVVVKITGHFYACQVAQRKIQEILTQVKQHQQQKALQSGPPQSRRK

Regarding `COc1cc2c[n+](C)c3c4cc5c(cc4ccc3c2cc1OC)OCO5` [nitidine chloride], the Kd was found to be 6.37 µM. This lies in the single-digit micromolar range.

Broadly, the Kd is the equilibrium constant for the complex coming apart. A low value points to higher affinity.
